From ChEMBL document CHEMBL1133902, “Biflavonoids as novel antituberculosis agents” (2001)
In brackets after ≈: the same amount, converted by molar mass.

What was measured:
[1] = test system: Mycobacterium tuberculosis; experiment: Antituberculosis activity against Mycobacterium tuberculosis at a concentration of 12.5 ug/mL; assay type: functional
[2] = test system: Mycobacterium tuberculosis; experiment: Minimum inhibitory concentration against Mycobacterium tuberculosis; assay type: functional

`O=c1cc(-c2ccccc2-c2cccc3c(=O)cc(-c4ccccc4)oc23)oc2ccccc12` gave an inhibition at 12.5 µg/mL [1] of 0%.
Work on `O=c1cc(-c2ccccc2)oc2ccc(-c3ccccc3-c3cc(=O)c4ccccc4o3)cc12` yielded an inhibition at 12.5 µg/mL [1] of 9%.
With `COc1ccc(-c2cc(=O)c3c(OC)cc(OC)c(C4C(=O)c5c(OC)cc(OC)cc5OC4c4ccc(OC)cc4)c3o2)cc1` (centres undefined) the inhibition at 12.5 µg/mL [1] was 95% and the MIC [2] was 12.5 µg/mL (≈ 20 µM).
`O=C1CC(c2ccc(O)cc2)Oc2cc(O)c(-c3c(O)cc4c(c3O)C(=O)CC(c3ccc(O)cc3)O4)c(O)c21` (centres undefined) gave an inhibition at 12.5 µg/mL [1] of 0%.
Compound `O=c1cc(-c2ccc(O)c(-c3c(O)cc4oc(-c5ccc(O)cc5)cc(=O)c4c3O)c2)oc2cc(O)cc(O)c12` [ROBUSTAFLAVONE] has an inhibition at 12.5 µg/mL [1] of 0%.
Work on `COc1ccc(-c2cc(=O)c3c(OC)c(-c4cc(OC)ccc4-c4cc(=O)c5c(OC)cc(OC)cc5o4)c(OC)cc3o2)cc1` yielded an inhibition at 12.5 µg/mL [1] of 1%.
For `O=C1c2c(O)cc(O)cc2OC(c2ccc(O)cc2)C1c1c(O)cc(O)c2c(=O)cc(-c3ccc(O)c(O)c3)oc12` (centres undefined), the inhibition at 12.5 µg/mL [1] was 0%.
With `O=C1c2c(O)cc(O)cc2OC(c2ccc(O)cc2)C1c1c(O[C@]2(O)O[C@H](CO)[C@@H](O)C(O)[C@H]2O)cc(O)c2c(=O)cc(-c3ccc(O)cc3)oc12` (single isomer, unassigned) the inhibition at 12.5 µg/mL [1] was 0%.
With `CC(=O)Oc1ccc(C2CC(=O)c3c(cc(OC(C)=O)c(-c4c(OC(C)=O)cc(OC(C)=O)c5c4OC(c4ccc(OC(C)=O)cc4)CC5=O)c3OC(C)=O)O2)cc1` (centres undefined) the inhibition at 12.5 µg/mL [1] was 0%.
In the case of `O=c1cc(-c2ccc(Oc3c(-c4cccc([N+](=O)[O-])c4)oc4ccccc4c3=O)cc2)oc2ccccc12`, the inhibition at 12.5 µg/mL [1] is reported as 61%.
`COc1ccc(C2CC(=O)c3c(cc(OC)c(-c4c(OC)cc5c(c4OC)C(=O)CC(c4ccc(OC)cc4)O5)c3OC)O2)cc1` (centres undefined) gave an inhibition at 12.5 µg/mL [1] of 2%.
With `O=c1cc(-c2cccc(-c3cccc4c(=O)cc(-c5ccccc5)oc34)c2)oc2ccccc12` the inhibition at 12.5 µg/mL [1] was 49%.
`COc1ccc(C2CC(=O)c3c(OC)cc(OC)c(C4C(=O)c5c(OC)cc(OC)cc5OC4c4ccc(OC)cc4)c3O2)cc1` (centres undefined) was tested, and the inhibition at 12.5 µg/mL [1] was 87% and the MIC [2] was over 12.5 µg/mL.
Compound `O=C1CC(c2ccc(O)c(O)c2)Oc2c1c(O)cc(O[C@]1(O)O[C@H](CO)[C@@H](O)C(O)[C@H]1O)c2C1C(=O)c2c(O)cc(O)cc2OC1c1ccc(O)cc1` (single isomer, unassigned) has an inhibition at 12.5 µg/mL [1] of 0%.
`O=C1CC(c2ccc(O)cc2)Oc2c1c(O)cc(O[C@]1(O)O[C@H](CO)[C@@H](O)C(O)[C@H]1O)c2C1C(=O)c2c(O)cc(O)cc2OC1c1ccc(O)cc1` (single isomer, unassigned) gave an inhibition at 12.5 µg/mL [1] of 0%.
`O=c1cc(-c2ccc(Oc3c(O)cc4oc(-c5ccc(O)cc5)cc(=O)c4c3O)cc2)oc2cc(O)cc(O)c12` [HINOKIFLAVONE] gave an inhibition at 12.5 µg/mL [1] of 0%.
`O=C1CC(c2ccc(O)cc2)Oc2cc(O)c(-c3c(O)cc(O)c4c3OC(c3ccc(O)cc3)CC4=O)c(O)c21` (centres undefined) showed an inhibition at 12.5 µg/mL [1] of 0%.
`O=c1cc(-c2ccc(O)c(-c3c(O)cc(O)c4c(=O)cc(-c5ccc(O)cc5)oc34)c2)oc2cc(O)cc(O)c12` [AMENTOFLAVONE] was tested, and the inhibition at 12.5 µg/mL [1] was 0%.
`CC(=O)Oc1ccc(C2CC(=O)c3c(cc(OC(C)=O)c(-c4c(OC(C)=O)cc5c(c4OC(C)=O)C(=O)CC(c4ccc(OC(C)=O)cc4)O5)c3OC(C)=O)O2)cc1` (centres undefined) showed an inhibition at 12.5 µg/mL [1] of 0%.
With `CC(=O)OC[C@H]1O[C@@](O)(Oc2cc(OC(C)=O)c3c(c2C2C(=O)c4c(OC(C)=O)cc(OC(C)=O)cc4OC2c2ccc(OC(C)=O)cc2)OC(c2ccc(OC(C)=O)cc2)CC3=O)[C@H](O)C(O)[C@@H]1O` (single isomer, unassigned) the inhibition at 12.5 µg/mL [1] was 0%.
Work on `COc1ccc(-c2oc3cc(OC)cc(OC)c3c(=O)c2-c2c(-c3ccc(OC)cc3)oc3cc(OC)cc(OC)c3c2=O)cc1` yielded an inhibition at 12.5 µg/mL [1] of 0%.
Compound `CC(=O)Oc1ccc(C2Oc3cc(OC(C)=O)cc(OC(C)=O)c3C(=O)C2c2c(OC(C)=O)cc(OC(C)=O)c3c2OC(c2ccc(OC(C)=O)c(OC(C)=O)c2)CC3=O)cc1` (centres undefined) has an inhibition at 12.5 µg/mL [1] of 0%.
Compound `O=c1cc(-c2cccc(-c3ccc4c(=O)cc(-c5ccccc5)oc4c3)c2)oc2ccccc12` has an inhibition at 12.5 µg/mL [1] of 0%.
Compound `COc1ccc2c(c1)OC(c1ccccc1)C(C1C(=O)c3ccc(OC)cc3OC1c1ccccc1)C2=O` (centres undefined) has an inhibition at 12.5 µg/mL [1] of 0%.
Compound `O=C1CC(c2ccc(O)c(O)c2)Oc2c1c(O)cc(O)c2C1C(=O)c2c(O)cc(O)cc2OC1c1ccc(O)cc1` (centres undefined) has an inhibition at 12.5 µg/mL [1] of 0%.
`COc1ccc(-c2cc(=O)c3c(OC)c(-c4c(OC)cc5oc(-c6ccc(OC)cc6)cc(=O)c5c4OC)c(OC)cc3o2)cc1` showed an inhibition at 12.5 µg/mL [1] of 96% and an MIC [2] of over 12.5 µg/mL.
